Assay results as given in PubChem BioAssay (NCI).
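Compound exposure: 48 hours, 5 concentrations, 96-well plates. Definition used: TGI = concentration required for complete inhibition of growth.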

Legend:
Test in all cases: NCI anticancer screen, dose series, 48 h
[1] = system: RPMI-8226 leukemia
[2] = system: RXF 393 renal
[3] = system: K-562 leukemia
[4] = system: HT29 colon
[5] = system: UACC-257 melanoma
[6] = system: ACHN renal
[7] = system: OVCAR-5 ovarian
[8] = system: 786-0 renal
[9] = system: SF-539 CNS
[10] = system: MALME-3M melanoma
[11] = system: HOP-62 NSCLC
[12] = system: SNB-75 CNS
[13] = system: CAKI-1 renal
[14] = system: MDA-N
[15] = system: UACC-62 melanoma
[16] = system: M14 melanoma
[17] = system: OVCAR-3 ovarian
[18] = system: NCI-H226 lung
[19] = system: NCI/ADR-RES ovarian
[20] = system: SK-MEL-5 melanoma
[21] = system: COLO 205 colon
[22] = system: SF-268 CNS
[23] = system: HL-60(TB) leukemia
[24] = system: MCF7 breast
[25] = system: NCI-H460 lung
[26] = system: LOX IMVI melanoma
[27] = system: U251 CNS
[28] = system: MOLT-4 leukemia
[29] = system: HOP-92 NSCLC
[30] = system: T-47D breast
[31] = system: HCT-15 colon
[32] = system: CCRF-CEM leukemia
[33] = system: HCC-2998 colon
[34] = system: PC-3 prostate
[35] = system: SW-620 colon
[36] = system: DU-145 prostate
[37] = system: SK-MEL-28 melanoma
[38] = system: OVCAR-8 ovarian
[39] = system: SK-OV-3 ovarian
[40] = system: TK-10 renal
[41] = system: KM12 colon
[42] = system: SR leukemia
[43] = system: SN12C renal
[44] = system: HS 578T breast
[45] = system: EKVX NSCLC
[46] = system: A549 NSCLC
[47] = system: OVCAR-4 ovarian
[48] = system: SF-295 CNS
[49] = system: NCI-H23 lung
[50] = system: UO-31 renal
[51] = system: NCI-H522 lung
[52] = system: BT-549 breast
[53] = system: A498 renal
[54] = system: MDA-MB-435
[55] = system: SNB-19 CNS
[56] = system: SK-MEL-2 melanoma
[57] = system: MDA-MB-231 breast
[58] = system: IGROV1 ovarian
[59] = system: HCT-116 colon

In the case of `CCCCCNC(=O)c1cc2cc(CCl)ccc2oc1=O`, the TGI [1] is reported as over 100 µM, the TGI [2] is reported as 1.78 µM and the TGI [3] is reported as over 100 µM. For the same compound, the TGI [4] was 9.58 µM, the TGI [5] was 6.56 µM and the TGI [6] was 4.52 µM. For the same compound, the TGI [7] was 7.99 µM, the TGI [8] was 2.82 µM and the TGI [9] was 16.8 µM. It also gave a TGI [10] of 7.5 µM, a TGI [11] of 14 µM and a TGI [12] of 13.1 µM. It also gave a TGI [13] of 2.57 µM, a TGI [14] of over 94.2 µM and a TGI [15] of 7.15 µM. It also gave a TGI [16] of over 51.4 µM, a TGI [17] of 26.6 µM and a TGI [18] of 30.1 µM. It also gave a TGI [19] of over 66.8 µM, a TGI [20] of over 51.2 µM and a TGI [21] of 2.79 µM. For the same compound, the TGI [22] was 12.4 µM, the TGI [23] was 10.5 µM and the TGI [24] was over 87.4 µM. The TGI [25] was 3.3 µM, the TGI [26] was over 72.8 µM and the TGI [27] was 36.6 µM. The TGI [28] was over 100 µM, the TGI [29] was 3.71 µM and the TGI [30] was 2.98 µM. For the same compound, the TGI [31] was 6.22 µM, the TGI [32] was over 100 µM and the TGI [33] was 18.9 µM. It also gave a TGI [34] of 2.81 µM, a TGI [35] of over 100 µM and a TGI [36] of 5.95 µM. It also gave a TGI [37] of over 100 µM, a TGI [38] of over 100 µM and a TGI [39] of 10.3 µM. The TGI [40] was 2.85 µM, the TGI [41] was over 44.5 µM and the TGI [42] was over 100 µM. For the same compound, the TGI [43] was 3.67 µM, the TGI [44] was over 54.7 µM and the TGI [45] was 9.94 µM. It also gave a TGI [46] of 14.1 µM, a TGI [47] of 26.6 µM and a TGI [48] of 24.7 µM. The TGI [49] was 11.5 µM, the TGI [50] was 3.07 µM and the TGI [51] was 17.1 µM. It also gave a TGI [52] of over 46.3 µM, a TGI [53] of 3.98 µM and a TGI [54] of over 60.8 µM. It also gave a TGI [55] of over 69 µM, a TGI [56] of 19.8 µM and a TGI [57] of 3.72 µM. It also gave a TGI [58] of 18.6 µM and a TGI [59] of over 38.5 µM.
